Laboratory results published in the NIST ThermoML archive (doi:10.1021/je0602465).
Values joined by “and” are separate entries in the source; they are usually repeats but may differ in a detail not shown here. Identical values can stand only once.

Conditions: Liquid; for vapor or sublimation pressure: low residence time flow method

Oc1cccc(O)c1 [1,3-benzenediol]
Conditions	Critical pressure [kPa]	Critical temperature [K]	vapor or sublimation pressure [kPa]
546.7 K	–	–	84.54
582.6 K	–	–	192.6
631.7 K	–	–	494.8
675.9 K	–	–	994.4
728.6 K	–	–	1994
790.6 K	–	–	3994
813.7 K	–	–	4999
831.3 K	–	–	5995
Low residence time flow calorimetry	6240	–	–
Low residence time flow method	–	836	–

OCCCCCCO [1,6-hexanediol]
Conditions	Critical pressure [kPa]	Critical temperature [K]	vapor or sublimation pressure [kPa]
523.2 K	–	–	93.33
552.8 K	–	–	199.3
597.1 K	–	–	500.6
637.1 K	–	–	1001
685.1 K	–	–	2007
717.6 K	–	–	3024
740 K	–	–	4012
740.4 K	–	–	4054
Low residence time flow calorimetry	4080	–	–
Low residence time flow method	–	740.8	–

Oc1ccccc1O [1,2-benzenediol]
Conditions	vapor or sublimation pressure
511.3 K	81.47 kPa
535.7 K	147 kPa
547 K	187.4 kPa
577.6 K	349.1 kPa
595.6 K	487.9 kPa
597.3 K	499.4 kPa
621.8 K	742.9 kPa
640.1 K	988.9 kPa
640.9 K	992.8 kPa
692.7 K	1996 kPa and 1995 kPa
711.5 K	2496 kPa
727.5 K	2993 kPa
727.9 K	2997 kPa
753.5 K	4007 kPa
754.8 K	3993 kPa

C1CNCCN1 [piperazine]
Conditions	Critical pressure [kPa]	Critical temperature [K]	vapor or sublimation pressure [kPa]
445.2 K	–	–	189.5
471.6 K	–	–	343.6
488.9 K	–	–	492.3
528.1 K	–	–	992.6
573.6 K	–	–	1994
629.7 K	–	–	3997
649.3 K	–	–	4994
653.7 K	–	–	5243
655 K	–	–	5348
Low residence time flow calorimetry	5420	656.3	–
